Measurements from US20240207207A1, “METHODS FOR MITIGATING AND PREVENTING PROTEOSTASIS-BASED INJURIES” (San Diego State University (SDSU) Foundation, dba San Diego …, priority 2018, published 2024).

Tests used:
[1] = system: acute myocardial I/R injury; experiment: acute in vivo myocardial ischemia/reperfusion; design: species or system mouse; settings: acute I/R protocol, 24 h
Experimental: In vivo myocardial ischemia/reperfusion. Surgical myocardial I/R was performed as previously described^10. Briefly, mice were anesthetized with 2% isoflurane and a thoracotomy was performed to isolate the heart, after which the left anterior descending coronary artery (LAD) was ligated with a 6-0 Prolene™ suture for 30 minutes, followed by suture removal and either 24 hours or 7 days of reperfusion. Regional ischemia was confirmed by visual inspection of the discoloration of the myocardium distal of the ligation, which is characteristic of impaired blood flow. Animals assigned as shams underwent the thoracotomy surgical procedure, but weren't subjected to LAD ligation. […] The AAR, INF and left ventricle area (LV) from digitized images of heart sections were analyzed using ImageJ software. […] A separate investigator analyzed the AAR, INF, and LV and was blinded to the animal trial assignments. […] Blood was placed in heparin- and EDTA-coated vacutainer (BD Vacutainer) and centrifuged at 3000 rpm for 10 minutes and plasma samples were analyzed for cardiac troponin I with a Mouse cTnI High-Sensitivity ELISA kit (Life Diagnostics, Inc.).
Transthoracic echocardiography. […] Diastolic function was determined as previously described^33. […] Waveforms were recorded and analyzed for peak early- and late-diastolic transmitral flow velocities corresponding to E and A waves, respectively. […]

[2] = system: ATF6-regulated genes Grp78 and Cat; experiment: ATF6 target gene induction in mouse tissues after intravenous administration (qPCR, IHC, immunoblot); settings: in vivo, mouse heart
Experimental: (§1) Immunoblot analysis. NRVM were lysed and subjected to immunoblot analysis, as previously described^10. In brief, cultures were lysed with VC lysis buffer made from 20 mM Tris-HCl (pH 7.5), 150 mM NaCl, 0.1% SDS, 1% Triton X-100™, protease inhibitor cocktail (Roche Diagnostics, Indianapolis, IN) and phosphatase inhibitor cocktail (Roche Diagnostics). Samples comprising 10 μg of protein were mixed with Laemmli sample buffer, boiled, then subjected to SDS-PAGE followed by transfer onto PVDF membranes for immunoblotting. Full-length Atf6 (p90) was detected with an antibody from SAB Signalway™ Antibody (1:1000, cat #32008, College Park, MD), while active Atf6 (p50) was detected with an antibody from Proteintech™ (1:1000, cat #24169-1-AP, Rosemont, IL). […] The oxidation state of ATF6 in NRVM treated with compound 147 was analyzed by gel-shift essentially as previously described^32. […]
(§2) Malondialdehyde assay. Lipid peroxidation was determined by measuring the levels of malondialdehyde (MDA) using a TBARS assay kit (Cayman Chemical, Ann Arbor, MI) according to the manufacturer's instructions as previously described^10. […]

[3] = system: hearts of mice that were not subjected to I/R; experiment: 7-day dosing protocols in mice not subjected to I/R: cardiac performance and safety; type: in vivo, mouse
Experimental: In vivo myocardial ischemia/reperfusion. Surgical myocardial I/R was performed as previously described^10. Briefly, mice were anesthetized with 2% isoflurane and a thoracotomy was performed to isolate the heart, after which the left anterior descending coronary artery (LAD) was ligated with a 6-0 Prolene™ suture for 30 minutes, followed by suture removal and either 24 hours or 7 days of reperfusion. Regional ischemia was confirmed by visual inspection of the discoloration of the myocardium distal of the ligation, which is characteristic of impaired blood flow. Animals assigned as shams underwent the thoracotomy surgical procedure, but weren't subjected to LAD ligation. Animals were randomly assigned to trial groups prior to outset of the experiment by a single investigator, while the surgeon and data analyst were blinded to trial assignments. Animals designated to receive either control compound or compound 147 at the time of reperfusion received 2 mg/kg of respective compounds via IV injection 5 minutes prior to release of the ligation. Twenty-four hours after reperfusion, 1% of Evans Blue was injected apically to determine the area at risk (AAR). Hearts were harvested and 1-mm sections of the hearts were stained with 1% 2,3,5-triphenyltetrazolium chloride (TTC) to measure the infarcted area (INF) as previously described^36. The AAR, INF and left ventricle area (LV) from digitized images of heart sections were analyzed using ImageJ software. […] A separate investigator analyzed the AAR, INF, and LV and was blinded to the animal trial assignments. […] Blood was placed in heparin- and EDTA-coated vacutainer (BD Vacutainer) and centrifuged at 3000 rpm for 10 minutes and plasma samples were analyzed for cardiac troponin I with a Mouse cTnI High-Sensitivity ELISA kit (Life Diagnostics, Inc.).
Hepatic triglyceride assay. Hepatic triglyceride assay was performed as previously described^39. Briefly, livers were harvested and 10 mg extracts were homogenized and analyzed for triglyceride content using the EnzyChrom Triglyceride Assay Kit™ (BioAssay Systems).
Transthoracic echocardiography. Transthoracic echocardiography was performed using an ultrasound imaging system (Vevo 2100 System™, Fujifilm VisualSonics, Toronto, Ontario, Canada) as described^40. Diastolic function was determined as previously described^33. Briefly, echocardiography coupled with pulse-wave Doppler was used to visualize transmitral flow velocities and were recorded by imaging the mitral orifice at the point of the mitral leaflets. Waveforms were recorded and analyzed for peak early- and late-diastolic transmitral flow velocities corresponding to E and A waves, respectively.
Malondialdehyde assay. Lipid peroxidation was determined by measuring the levels of malondialdehyde (MDA) using a TBARS assay kit (Cayman Chemical, Ann Arbor, MI) according to the manufacturer's instructions as previously described^10. In vivo experimental compound administration. Control compound and compound 147 were suspended to a final concentration of 0.2 mg/mL in 10% DMSO. Mice were weighed prior to administration of compounds and, subsequently, non-anesthetized 10-week old WT or ATF6 cKO mice were injected with ˜250 μL of stock compounds via the lateral tail vein depending upon body mass to ensure accurate administration of 2 mg/kg. […] Since compound 147 and tunicamycin have similar molecular weights, this dose of compound 147 is near the molar equivalent of the typical dose of tunicamycin. […]

[4] = system: IRE1-regulated Erdj4, PERK-regulated Atf4; experiment: qPCR for IRE1 and PERK target genes in mouse hearts; type: in vivo; settings: WT or ATF6 cKO mice, 24 hours after treatment, LV
Experimental: as §1, §2

[5] = general in vivo properties (brain penetration, tolerance)
Experimental: Malondialdehyde assay. Lipid peroxidation was determined by measuring the levels of malondialdehyde (MDA) using a TBARS assay kit (Cayman Chemical, Ann Arbor, MI) according to the manufacturer's instructions as previously described^10. In vivo experimental compound administration. Control compound and compound 147 were suspended to a final concentration of 0.2 mg/mL in 10% DMSO. Mice were weighed prior to administration of compounds and, subsequently, non-anesthetized 10-week old WT or ATF6 cKO mice were injected with ˜250 μL of stock compounds via the lateral tail vein depending upon body mass to ensure accurate administration of 2 mg/kg. […] Since compound 147 and tunicamycin have similar molecular weights, this dose of compound 147 is near the molar equivalent of the typical dose of tunicamycin. It is relevant to note that for compound 147, a dose of 2 mg/kg is similar to FDA-approved cardiovascular drugs, such as many angiotensin-converting enzyme (ACE) inhibitors, which are used in small-animal models at 2 mg/kg^42.

[6] = Trials 1-3, 7 days, mice without I/R

**Q.** For `Cc1ccc(O)c(NC(=O)CCc2ccccc2)c1` [compound 147], which “cardiac performance, chamber size, or pathological hypertrophy by echocardiography” value [1] is on record?
**A.** no effect

**Q.** And the “duration of ATF6-target gene induction” value [2]?
**A.** ~3 days

**Q.** What about the “expression of pathology-associated genes Nppa, Nppb, Col1a1 or Myh7” value [3, 6] of the same molecule?
**A.** None of the dosing protocols resulted in

**Q.** What about the “increased plasma cTnI” value [3, 6] of the same molecule?
**A.** None of the dosing protocols resulted in

**Q.** And the “pathological cardiac hypertrophy (heart weight to body weight)” value [3, 6]?
**A.** None of the dosing protocols resulted in

**Q.** And the “liver or kidney deficits (steatosis by hepatic triglyceride accumulation, glomerular filtration rate by creatinine clearance)” value ([3]; any of the trials, data not shown)?
**A.** no apparent deficits were observed

**Q.** And the cardiotoxicity ([3]; over the course of 7 days)?
**A.** does not induce cardiotoxicity

**Q.** What about the “expression levels of Erdj4 or Atf4 in hearts” value [4] of the same molecule?
**A.** no effect

**Q.** And the “blood brain barrier crossing” value [5]?
**A.** has the capacity to cross the blood brain barrier

**Q.** And the “toxicity or deleterious off-target effects” value [5]?
**A.** does not exhibit any apparent toxicity or deleterious off-target effects
